Laboratory results reported in ChEMBL document CHEMBL3132769, “Fragment growing to retain or alter the selectivity of anchored kinase hinge-binding fragments” (Medchemcomm, 2014).

Experiments:
[1] = target: Epidermal growth factor receptor (Homo sapiens) (UniProt P00533); experiment: Inhibition of human EGFR catalytic domain expressed in baculovirus assessed as substrate phosphorylation using fluorescence-labelled peptides as substrate at 9 uM after 90 mins by microfluidic peptide phosphorylation assay
[2] = target: Glycogen synthase kinase-3 beta (Homo sapiens) (UniProt P49841); experiment: Inhibition of human full length GSK-3 beta expressed in baculovirus assessed as substrate phosphorylation using fluorescence-labelled peptides as substrate at 9 uM after 90 mins by microfluidic peptide phosphorylation assay
[3] = target: Receptor-type tyrosine-protein kinase FLT3 (Homo sapiens) (UniProt P36888); experiment: Inhibition of human FLT3 catalytic domain expressed in baculovirus assessed as substrate phosphorylation using fluorescence-labelled peptides as substrate at 0.06 uM after 90 mins by microfluidic peptide phosphorylation assay
[4] = target: Ribosomal protein S6 kinase alpha-1 (Homo sapiens) (UniProt Q15418); experiment: Inhibition of human full length RSK1 expressed in baculovirus assessed as substrate phosphorylation using fluorescence-labelled peptides as substrate at 0.06 uM after 90 mins by microfluidic peptide phosphorylation assay
[5] = target: Mitogen-activated protein kinase 3 (Homo sapiens) (UniProt P27361); experiment: Inhibition of human full length ERK1 expressed in Escherichia coli cell assessed as substrate phosphorylation using fluorescence-labelled peptides as substrate at 0.1 uM after 90 mins by microfluidic peptide phosphorylation assay
[6] = target: T1, Mitogen-activated protein kinase 13 (Homo sapiens) (UniProt O15264); experiment: Inhibition of human full length p38 delta expressed in Escherichia coli cell assessed as substrate phosphorylation using fluorescence-labelled peptides as substrate at 0.1 uM after 90 mins by microfluidic peptide phosphorylation assay
T1 sequence (whole entry): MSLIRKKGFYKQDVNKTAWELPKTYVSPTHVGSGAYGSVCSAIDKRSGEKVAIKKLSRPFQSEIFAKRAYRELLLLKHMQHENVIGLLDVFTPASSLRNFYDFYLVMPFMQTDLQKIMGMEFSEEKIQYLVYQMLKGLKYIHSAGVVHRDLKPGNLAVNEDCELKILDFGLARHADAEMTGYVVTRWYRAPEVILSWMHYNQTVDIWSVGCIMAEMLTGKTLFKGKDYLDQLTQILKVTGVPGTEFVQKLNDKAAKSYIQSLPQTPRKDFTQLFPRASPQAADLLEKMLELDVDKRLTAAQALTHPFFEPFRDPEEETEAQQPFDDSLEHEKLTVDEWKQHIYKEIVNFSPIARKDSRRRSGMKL

[7] = target: MAP kinase-activated protein kinase 3 (Homo sapiens) (UniProt Q16644); experiment: Inhibition of human full length MAPKAPK3 expressed in Escherichia coli cell assessed as substrate phosphorylation using fluorescence-labelled peptides as substrate at 420 uM after 90 mins by microfluidic peptide phosphorylation assay
[8] = target: Calcium/calmodulin-dependent protein kinase type II subunit beta (Homo sapiens) (UniProt Q13554); experiment: Inhibition of human CAMK2 beta catalytic domain expressed in baculovirus assessed as substrate phosphorylation using fluorescence-labelled peptides as substrate at 70 uM after 90 mins by microfluidic peptide phosphorylation assay
[9] = target: Hepatocyte growth factor receptor (Homo sapiens) (UniProt P08581); experiment: Inhibition of human MET cytoplasmic domain expressed in baculovirus assessed as substrate phosphorylation using fluorescence-labelled peptides as substrate at 70 uM after 90 mins by microfluidic peptide phosphorylation assay
[10] = target: Calcium/calmodulin-dependent protein kinase type II subunit gamma (Homo sapiens) (UniProt Q13555); experiment: Inhibition of human CAMK2 gamma catalytic domain expressed in baculovirus assessed as substrate phosphorylation using fluorescence-labelled peptides as substrate at 0.2 uM after 90 mins by microfluidic peptide phosphorylation assay
Homo sapiens = species: Homo sapiens; experiment: Inhibition of human full length PKA expressed in baculovirus assessed as substrate phosphorylation using fluorescence-labelled peptides as substrate at 0.2 uM after 90 mins by microfluidic peptide phosphorylation assay
[11] = target: T2, Aurora kinase A (Homo sapiens) (UniProt O14965); experiment: Inhibition of human full length AurA expressed in baculovirus assessed as substrate phosphorylation using fluorescence-labelled peptides as substrate at 2 uM after 90 mins by microfluidic peptide phosphorylation assay
T2 sequence (whole entry): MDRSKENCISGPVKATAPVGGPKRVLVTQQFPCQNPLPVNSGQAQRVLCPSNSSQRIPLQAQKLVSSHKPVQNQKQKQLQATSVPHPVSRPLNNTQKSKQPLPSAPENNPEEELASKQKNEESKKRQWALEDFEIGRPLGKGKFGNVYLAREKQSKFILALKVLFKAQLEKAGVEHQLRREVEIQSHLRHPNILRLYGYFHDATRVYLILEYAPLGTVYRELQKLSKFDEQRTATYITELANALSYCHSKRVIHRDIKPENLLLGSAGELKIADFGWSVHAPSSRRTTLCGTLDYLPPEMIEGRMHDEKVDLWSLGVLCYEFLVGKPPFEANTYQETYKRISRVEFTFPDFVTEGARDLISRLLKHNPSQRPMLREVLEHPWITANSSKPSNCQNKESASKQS

[12] = target: MAP/microtubule affinity-regulating kinase 3 (Homo sapiens) (UniProt P27448); experiment: Inhibition of human full length c-TAK1 expressed in Escherichia coli cell assessed as substrate phosphorylation using fluorescence-labelled peptides as substrate at 2 uM after 90 mins by microfluidic peptide phosphorylation assay
[13] = target: Serine/threonine-protein kinase Chk2 (Homo sapiens) (UniProt O96017); experiment: Inhibition of human full length CHK2 expressed in baculovirus assessed as substrate phosphorylation using fluorescence-labelled peptides as substrate at 8 uM after 90 mins by microfluidic peptide phosphorylation assay

Ribosomal protein S6 kinase alpha-1 (Homo sapiens), sequence (Q15418 whole entry): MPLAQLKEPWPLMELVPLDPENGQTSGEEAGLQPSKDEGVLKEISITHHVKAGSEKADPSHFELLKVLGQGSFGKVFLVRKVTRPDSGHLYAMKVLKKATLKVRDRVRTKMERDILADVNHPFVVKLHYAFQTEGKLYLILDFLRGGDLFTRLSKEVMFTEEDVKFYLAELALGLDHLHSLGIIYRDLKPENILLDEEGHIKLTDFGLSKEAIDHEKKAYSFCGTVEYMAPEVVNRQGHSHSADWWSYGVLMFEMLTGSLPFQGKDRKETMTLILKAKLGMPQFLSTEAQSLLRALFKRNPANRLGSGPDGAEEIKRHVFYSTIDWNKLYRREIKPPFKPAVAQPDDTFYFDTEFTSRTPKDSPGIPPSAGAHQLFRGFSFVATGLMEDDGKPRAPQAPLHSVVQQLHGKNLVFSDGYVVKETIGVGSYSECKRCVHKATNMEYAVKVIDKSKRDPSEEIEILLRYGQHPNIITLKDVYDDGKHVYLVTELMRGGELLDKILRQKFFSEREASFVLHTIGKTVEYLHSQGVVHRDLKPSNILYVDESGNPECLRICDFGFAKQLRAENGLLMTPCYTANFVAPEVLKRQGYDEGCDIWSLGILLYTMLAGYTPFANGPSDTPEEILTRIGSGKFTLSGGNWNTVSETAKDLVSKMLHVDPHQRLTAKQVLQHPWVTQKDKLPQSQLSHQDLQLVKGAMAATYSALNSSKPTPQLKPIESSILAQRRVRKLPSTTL
MAP kinase-activated protein kinase 3 (Homo sapiens), sequence (Q16644 whole entry, looked up, the tested form may be a part): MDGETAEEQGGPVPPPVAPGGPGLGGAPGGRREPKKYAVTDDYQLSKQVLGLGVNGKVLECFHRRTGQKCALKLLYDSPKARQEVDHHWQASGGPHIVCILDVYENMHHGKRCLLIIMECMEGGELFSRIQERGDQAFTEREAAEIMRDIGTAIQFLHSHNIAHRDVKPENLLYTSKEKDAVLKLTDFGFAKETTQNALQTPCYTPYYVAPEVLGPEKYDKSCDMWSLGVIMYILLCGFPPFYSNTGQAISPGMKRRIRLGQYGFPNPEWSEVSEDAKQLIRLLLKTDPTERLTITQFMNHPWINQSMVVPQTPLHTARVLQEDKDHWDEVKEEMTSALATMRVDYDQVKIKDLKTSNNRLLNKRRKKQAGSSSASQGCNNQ
Calcium/calmodulin-dependent protein kinase type II subunit beta (Homo sapiens), sequence (Q13554 whole entry, the tested form may be a part): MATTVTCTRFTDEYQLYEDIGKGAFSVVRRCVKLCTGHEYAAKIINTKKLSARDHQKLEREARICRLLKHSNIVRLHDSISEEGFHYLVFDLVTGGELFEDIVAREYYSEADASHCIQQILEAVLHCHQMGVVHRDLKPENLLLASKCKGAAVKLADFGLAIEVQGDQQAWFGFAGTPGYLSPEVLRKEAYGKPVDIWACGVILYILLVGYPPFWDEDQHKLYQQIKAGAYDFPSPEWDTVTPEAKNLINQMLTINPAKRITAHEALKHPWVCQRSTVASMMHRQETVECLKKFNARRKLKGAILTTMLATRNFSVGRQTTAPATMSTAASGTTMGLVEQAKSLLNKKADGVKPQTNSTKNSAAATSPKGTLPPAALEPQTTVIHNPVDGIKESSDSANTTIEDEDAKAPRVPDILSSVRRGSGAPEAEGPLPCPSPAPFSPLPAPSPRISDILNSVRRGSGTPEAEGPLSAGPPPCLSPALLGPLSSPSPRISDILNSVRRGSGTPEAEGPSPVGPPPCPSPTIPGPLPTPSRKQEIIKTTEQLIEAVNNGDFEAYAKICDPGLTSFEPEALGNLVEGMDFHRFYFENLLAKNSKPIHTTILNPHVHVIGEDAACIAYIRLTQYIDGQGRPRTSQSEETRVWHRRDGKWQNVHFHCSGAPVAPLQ
Epidermal growth factor receptor (Homo sapiens), sequence (P00533 whole entry, the tested form may be a part): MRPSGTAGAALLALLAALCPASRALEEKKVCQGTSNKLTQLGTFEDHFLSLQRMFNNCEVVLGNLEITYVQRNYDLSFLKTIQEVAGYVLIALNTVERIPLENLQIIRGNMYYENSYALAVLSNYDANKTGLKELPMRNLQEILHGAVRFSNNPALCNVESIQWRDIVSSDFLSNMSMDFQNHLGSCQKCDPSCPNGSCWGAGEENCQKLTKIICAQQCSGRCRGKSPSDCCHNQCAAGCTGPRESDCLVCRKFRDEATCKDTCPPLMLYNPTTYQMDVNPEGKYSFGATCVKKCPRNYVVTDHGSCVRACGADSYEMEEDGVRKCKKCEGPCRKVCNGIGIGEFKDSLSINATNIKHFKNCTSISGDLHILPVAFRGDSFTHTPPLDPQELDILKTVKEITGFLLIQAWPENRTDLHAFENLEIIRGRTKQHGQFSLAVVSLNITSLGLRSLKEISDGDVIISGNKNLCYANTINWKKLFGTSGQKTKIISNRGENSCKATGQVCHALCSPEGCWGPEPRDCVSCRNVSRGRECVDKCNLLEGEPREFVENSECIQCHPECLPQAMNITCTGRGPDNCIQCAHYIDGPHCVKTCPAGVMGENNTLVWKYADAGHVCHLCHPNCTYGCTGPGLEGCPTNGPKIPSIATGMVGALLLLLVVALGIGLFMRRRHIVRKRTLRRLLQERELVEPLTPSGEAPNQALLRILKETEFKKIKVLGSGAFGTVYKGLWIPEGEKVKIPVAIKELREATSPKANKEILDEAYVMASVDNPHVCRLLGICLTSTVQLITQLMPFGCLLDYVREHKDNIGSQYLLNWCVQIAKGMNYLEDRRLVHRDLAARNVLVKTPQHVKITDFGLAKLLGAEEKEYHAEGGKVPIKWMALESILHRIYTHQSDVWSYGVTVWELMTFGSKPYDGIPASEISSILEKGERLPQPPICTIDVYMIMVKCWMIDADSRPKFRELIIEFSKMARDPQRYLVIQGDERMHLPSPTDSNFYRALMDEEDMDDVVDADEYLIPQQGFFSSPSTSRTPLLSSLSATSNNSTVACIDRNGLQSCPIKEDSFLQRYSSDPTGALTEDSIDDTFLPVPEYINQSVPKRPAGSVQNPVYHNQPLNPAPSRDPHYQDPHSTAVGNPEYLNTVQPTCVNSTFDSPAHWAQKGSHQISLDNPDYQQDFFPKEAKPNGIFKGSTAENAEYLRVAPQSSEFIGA
Mitogen-activated protein kinase 3 (Homo sapiens), sequence (P27361 whole entry): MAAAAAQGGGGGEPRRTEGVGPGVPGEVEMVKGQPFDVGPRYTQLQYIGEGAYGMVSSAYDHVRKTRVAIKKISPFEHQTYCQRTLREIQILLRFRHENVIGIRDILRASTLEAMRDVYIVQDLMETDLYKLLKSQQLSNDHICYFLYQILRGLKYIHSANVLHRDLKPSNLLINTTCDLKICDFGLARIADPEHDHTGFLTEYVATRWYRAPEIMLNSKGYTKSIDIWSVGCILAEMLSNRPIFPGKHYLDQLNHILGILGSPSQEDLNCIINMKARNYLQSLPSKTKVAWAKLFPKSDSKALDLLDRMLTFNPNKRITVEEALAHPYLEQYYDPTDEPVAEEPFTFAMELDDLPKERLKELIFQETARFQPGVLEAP
Glycogen synthase kinase-3 beta (Homo sapiens), sequence (P49841 whole entry, looked up, the tested form may be a part): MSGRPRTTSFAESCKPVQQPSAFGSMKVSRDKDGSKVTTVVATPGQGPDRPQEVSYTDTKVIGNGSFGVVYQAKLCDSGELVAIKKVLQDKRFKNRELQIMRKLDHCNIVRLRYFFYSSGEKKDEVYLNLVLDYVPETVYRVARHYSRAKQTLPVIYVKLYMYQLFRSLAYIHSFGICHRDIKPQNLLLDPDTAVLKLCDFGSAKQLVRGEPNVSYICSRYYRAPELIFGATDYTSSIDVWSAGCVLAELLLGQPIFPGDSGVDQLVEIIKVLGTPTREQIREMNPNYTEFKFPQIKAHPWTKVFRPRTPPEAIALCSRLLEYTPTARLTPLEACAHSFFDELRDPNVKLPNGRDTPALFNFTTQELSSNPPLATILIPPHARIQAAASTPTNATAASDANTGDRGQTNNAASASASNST
Receptor-type tyrosine-protein kinase FLT3 (Homo sapiens), sequence (P36888 whole entry, the tested form may be a part): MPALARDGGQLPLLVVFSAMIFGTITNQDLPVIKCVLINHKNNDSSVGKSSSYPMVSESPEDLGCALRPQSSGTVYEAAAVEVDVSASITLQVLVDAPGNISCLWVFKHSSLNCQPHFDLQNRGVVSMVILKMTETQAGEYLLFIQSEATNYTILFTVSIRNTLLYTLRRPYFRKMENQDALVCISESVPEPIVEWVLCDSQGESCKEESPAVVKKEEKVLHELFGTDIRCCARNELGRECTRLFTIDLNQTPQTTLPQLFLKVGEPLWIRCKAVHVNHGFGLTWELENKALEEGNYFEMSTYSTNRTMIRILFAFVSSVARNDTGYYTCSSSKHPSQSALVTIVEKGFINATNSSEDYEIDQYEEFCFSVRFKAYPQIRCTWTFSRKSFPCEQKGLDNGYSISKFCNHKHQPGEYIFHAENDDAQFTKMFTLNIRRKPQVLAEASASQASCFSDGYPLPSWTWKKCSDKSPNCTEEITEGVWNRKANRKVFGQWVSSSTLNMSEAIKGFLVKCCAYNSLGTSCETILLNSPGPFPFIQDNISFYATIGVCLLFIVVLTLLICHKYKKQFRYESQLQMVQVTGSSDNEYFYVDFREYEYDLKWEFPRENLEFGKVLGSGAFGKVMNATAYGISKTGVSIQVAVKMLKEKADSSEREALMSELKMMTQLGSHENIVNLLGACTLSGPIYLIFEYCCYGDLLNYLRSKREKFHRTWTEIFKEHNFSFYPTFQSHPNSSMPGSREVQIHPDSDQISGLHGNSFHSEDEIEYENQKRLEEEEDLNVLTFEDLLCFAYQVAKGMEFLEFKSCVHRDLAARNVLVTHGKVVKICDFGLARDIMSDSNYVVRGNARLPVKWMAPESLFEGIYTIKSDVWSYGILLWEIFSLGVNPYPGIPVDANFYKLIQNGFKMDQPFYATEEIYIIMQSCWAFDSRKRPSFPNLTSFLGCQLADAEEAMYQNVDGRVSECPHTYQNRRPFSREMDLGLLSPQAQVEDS

NCC1CN(c2ncnc3[nH]c4cnccc4c23)CCO1 (centres undefined)
inhibition [1]: 12%
inhibition [2]: 94%

NC1(Cc2ccc(Cl)cc2)CCN(c2ncnc3[nH]ccc23)CC1
inhibition [3]: 0%
inhibition [4]: 19.5%

C[C@H](CN(C)C)Oc1nc(Nc2cc3cccc(Cl)c3cn2)cnc1C#N
inhibition [5]: 1%
inhibition [6]: 2.5%

c1nc(N2CCOCC2)c2nc[nH]c2n1
inhibition [7]: 96.5%

CNCc1ccc(-c2ncnc3[nH]cnc23)cc1
inhibition [8]: 6.5%
inhibition [9]: 0%

Clc1ccc(C2(c3ccc(-c4ncnc5[nH]cnc45)cc3)CCNCC2)cc1
inhibition [10]: 15%
inhibition (Homo sapiens): 100%

NC1CCN(c2ncnc3[nH]ccc23)CC1
inhibition [11]: 64.5%
inhibition [12]: 3%

NCC1CCN(c2ncnc3[nH]ccc23)CC1
inhibition [13]: 0%
